The text below walks through data of PubChem BioAssay AID1259407 (Chemical Carcinogenesis Research Information System (CCRIS), 2018).

The data set deals with CCRIS mutagenicity, Ames/micronucleus/aberration tests. The data set is described as follows: CCRIS mutagenicity studies.
Where [1] appears, read: Test System: MOUSE LYMPHOMA, Strain/Indicator: L5178Y (TK+/TK-), Metabolic Activation: NONE, Method: SUSPENSION/PLATE.
[2] abbreviates: Test System: AMES SALMONELLA TYPHIMURIUM, Strain/Indicator: TA98, Metabolic Activation: NONE, Method: PREINCUBATION
Where [3] appears, read: Test System: AMES SALMONELLA TYPHIMURIUM, Strain/Indicator: TA100, Metabolic Activation: NONE, Method: PREINCUBATION
Where [4] appears, read: Test System: AMES SALMONELLA TYPHIMURIUM, Strain/Indicator: TA1535, Metabolic Activation: NONE, Method: PREINCUBATION
Where [5] appears, read: Test System: AMES SALMONELLA TYPHIMURIUM, Strain/Indicator: TA1537, Metabolic Activation: NONE, Method: PREINCUBATION
The mark [6] stands for this setting: Test System: AMES SALMONELLA TYPHIMURIUM, Strain/Indicator: TA98, Metabolic Activation: NONE, Method: STANDARD PLATE.
[7] abbreviates: Test System: AMES SALMONELLA TYPHIMURIUM, Strain/Indicator: TA98, Metabolic Activation: RAT, LIVER, S-9, AROCLOR 1254, Method: STANDARD PLATE.

Calls of active or inactive are those of the source. How the calls were made is not given here.

As to `OCc1c[nH]c2ccccc12`, the mutagenic call was “inactive; negative” (Test System: Ames Salmonella typhimurium, Strain/Indicator: TA98, Metabolic Activation: None, Method: Plate incorporation); “inactive; negative” (Test System: Ames Salmonella typhimurium, Strain/Indicator: TA98, Metabolic Activation: None, Method: Preincubation); “inactive; negative” (Test System: Ames Salmonella typhimurium, Strain/Indicator: TA98, Metabolic Activation: Rat, Liver, S-9, Aroclor 1254, Method: Plate incorporation); “inactive; negative” (Test System: Ames Salmonella typhimurium, Strain/Indicator: TA98, Metabolic Activation: Rat, Liver, S-9, Aroclor 1254, Method: Preincubation); “active; positive. reevaluation of results: positive” under setting [1]; “active; positive. reevaluation of results: positive” (Test System: MOUSE LYMPHOMA, Strain/Indicator: L5178Y (TK+/TK-), Metabolic Activation: RAT, LIVER, S-9, AROCLOR 1254, Method: SUSPENSION/PLATE).
For the compound `Cc1ccc(NO)cc1[N+](=O)[O-]`, the mutagenic call reads like this: (Test System: AMES SALMONELLA TYPHIMURIUM, Strain/Indicator: TA98, Metabolic Activation: NONE, Method: SUSPENSION/PLATE) “inactive; negative”; (Test System: AMES SALMONELLA TYPHIMURIUM, Strain/Indicator: TA98, Metabolic Activation: RAT, LIVER, S-9, PHENOBARBITAL AND 5,6-BENZOFLAVONE, Method: SUSPENSION/PLATE) “inactive; negative”; (Test System: AMES SALMONELLA TYPHIMURIUM, Strain/Indicator: TA100, Metabolic Activation: NONE, Method: SUSPENSION/PLATE) “inactive; negative”; (Test System: AMES SALMONELLA TYPHIMURIUM, Strain/Indicator: TA100, Metabolic Activation: RAT, LIVER, S-9, PHENOBARBITAL AND 5,6-BENZOFLAVONE, Method: SUSPENSION/PLATE) “inactive; negative”.
In the case of `CC(C)(C)CC(C)(C)c1ccc(OCCO)cc1`, the mutagenic call under setting [1] is “inactive; negative”.
As to `CCOc1ccc(NC(N)=O)cc1`, the mutagenic call runs as follows: (Test System: AMES SALMONELLA TYPHIMURIUM, Strain/Indicator: TA98, Metabolic Activation: HAMSTER, LIVER, S-9, AROCLOR 1254, Method: PREINCUBATION) “inactive; negative”; under setting [2], “inactive; negative”; (Test System: AMES SALMONELLA TYPHIMURIUM, Strain/Indicator: TA98, Metabolic Activation: RAT, LIVER, S-9, AROCLOR 1254, Method: PREINCUBATION) “inactive; negative”; (Test System: AMES SALMONELLA TYPHIMURIUM, Strain/Indicator: TA100, Metabolic Activation: HAMSTER, LIVER, S-9, AROCLOR 1254, Method: PREINCUBATION) “inactive; negative”; under setting [3], “inactive; negative”; (Test System: AMES SALMONELLA TYPHIMURIUM, Strain/Indicator: TA100, Metabolic Activation: RAT, LIVER, S-9, AROCLOR 1254, Method: PREINCUBATION) “inactive; negative”. In addition, the mutagenic call runs as follows: (Test System: AMES SALMONELLA TYPHIMURIUM, Strain/Indicator: TA1535, Metabolic Activation: HAMSTER, LIVER, S-9, AROCLOR 1254, Method: PREINCUBATION) “inactive; negative”; under setting [4], “inactive; negative”; (Test System: AMES SALMONELLA TYPHIMURIUM, Strain/Indicator: TA1535, Metabolic Activation: RAT, LIVER, S-9, AROCLOR 1254, Method: PREINCUBATION) “inactive; negative”; (Test System: AMES SALMONELLA TYPHIMURIUM, Strain/Indicator: TA1537, Metabolic Activation: HAMSTER, LIVER, S-9, AROCLOR 1254, Method: PREINCUBATION) “inactive; negative”; under setting [5], “inactive; negative”; (Test System: AMES SALMONELLA TYPHIMURIUM, Strain/Indicator: TA1537, Metabolic Activation: RAT, LIVER, S-9, AROCLOR 1254, Method: PREINCUBATION) “inactive; negative”.
On to `ClC1=C(Cl)[C@]2(Cl)[C@H]3[C@H]([C@@H]4C=C[C@H]3C4)[C@@]1(Cl)C2(Cl)Cl`, for which the mutagenic call was “inactive; negative” (Test System: AMES SALMONELLA TYPHIMURIUM, Strain/Indicator: TA97, Metabolic Activation: HAMSTER, LIVER, S-9, AROCLOR 1254 (10 OR 30%), Method: PREINCUBATION); “inactive; negative” (Test System: AMES SALMONELLA TYPHIMURIUM, Strain/Indicator: TA97, Metabolic Activation: NONE, Method: PREINCUBATION); “inactive; negative” (Test System: AMES SALMONELLA TYPHIMURIUM, Strain/Indicator: TA97, Metabolic Activation: NONE, Method: STANDARD PLATE); “inactive; negative” (Test System: AMES SALMONELLA TYPHIMURIUM, Strain/Indicator: TA97, Metabolic Activation: RAT, LIVER, S-9, AROCLOR 1254 (10 OR 30%), Method: PREINCUBATION); “inactive; negative” (Test System: AMES SALMONELLA TYPHIMURIUM, Strain/Indicator: TA97, Metabolic Activation: RAT, LIVER, S-9, AROCLOR 1254, Method: STANDARD PLATE); “inactive; negative” (Test System: AMES SALMONELLA TYPHIMURIUM, Strain/Indicator: TA98, Metabolic Activation: HAMSTER, LIVER, S-9, AROCLOR 1254 (10 OR 30%), Method: PREINCUBATION). Besides, the mutagenic call was “inactive; negative” under setting [2]; “inactive; negative” under setting [6]; “inactive; negative” (Test System: AMES SALMONELLA TYPHIMURIUM, Strain/Indicator: TA98, Metabolic Activation: RAT, LIVER, S-9, AROCLOR 1254 (10 OR 30%), Method: PREINCUBATION); “inactive; negative” under setting [7]; “inactive; negative” (Test System: AMES SALMONELLA TYPHIMURIUM, Strain/Indicator: TA100, Metabolic Activation: HAMSTER, LIVER, S-9, AROCLOR 1254 (10 OR 30%), Method: PREINCUBATION); “inactive; negative” under setting [3]. In addition, the mutagenic call (Test System: AMES SALMONELLA TYPHIMURIUM, Strain/Indicator: TA100, Metabolic Activation: NONE, Method: STANDARD PLATE) was “inactive; negative”; the mutagenic call (Test System: AMES SALMONELLA TYPHIMURIUM, Strain/Indicator: TA100, Metabolic Activation: RAT, LIVER, S-9, AROCLOR 1254 (10 OR 30%), Method: PREINCUBATION) was “inactive; negative”; the mutagenic call (Test System: AMES SALMONELLA TYPHIMURIUM, Strain/Indicator: TA100, Metabolic Activation: RAT, LIVER, S-9, AROCLOR 1254, Method: STANDARD PLATE) is “inactive; negative”; the mutagenic call (Test System: AMES SALMONELLA TYPHIMURIUM, Strain/Indicator: TA102, Metabolic Activation: NONE, Method: STANDARD PLATE) is “inactive; negative”; the mutagenic call (Test System: AMES SALMONELLA TYPHIMURIUM, Strain/Indicator: TA102, Metabolic Activation: RAT, LIVER, S-9, AROCLOR 1254, Method: STANDARD PLATE) is “inactive; negative”; the mutagenic call (Test System: AMES SALMONELLA TYPHIMURIUM, Strain/Indicator: TA1535, Metabolic Activation: HAMSTER, LIVER, S-9, AROCLOR 1254 (10 OR 30%), Method: PREINCUBATION) was “inactive; negative”. Moreover, the mutagenic call by setting is: under setting [4], “inactive; negative”; (Test System: AMES SALMONELLA TYPHIMURIUM, Strain/Indicator: TA1535, Metabolic Activation: RAT, LIVER, S-9, AROCLOR 1254 (10 OR 30%), Method: PREINCUBATION) “inactive; negative”; (Test System: AMES SALMONELLA TYPHIMURIUM, Strain/Indicator: TA1537, Metabolic Activation: HAMSTER, LIVER, S-9, AROCLOR 1254 (30%), Method: PREINCUBATION) “inactive; negative”; under setting [5], “inactive; negative”; (Test System: AMES SALMONELLA TYPHIMURIUM, Strain/Indicator: TA1537, Metabolic Activation: RAT, LIVER, S-9, AROCLOR 1254 (30%), Method: PREINCUBATION) “inactive; negative”.
`Cc1cc(O)c2c(c1O)C(=O)c1ccccc1C2=O`: the mutagenic call under setting [2] is “inactive; negative”; the mutagenic call (Test System: AMES SALMONELLA TYPHIMURIUM, Strain/Indicator: TA98, Metabolic Activation: RAT, LIVER, S-9, PCB, Method: PREINCUBATION) is “active; positive”; the mutagenic call under setting [3] is “inactive; negative”; the mutagenic call (Test System: AMES SALMONELLA TYPHIMURIUM, Strain/Indicator: TA100, Metabolic Activation: RAT, LIVER, S-9, PCB, Method: PREINCUBATION) was “active; positive”.
With `Cc1c(N)cnc2c1nc1c(C)cccn12`, the mutagenic call is “inactive; negative” under setting [6]; “active; positive” (Test System: AMES SALMONELLA TYPHIMURIUM, Strain/Indicator: TA98, Metabolic Activation: RAT, LIVER, CYTOSOL, AROCLOR 1254, Method: STANDARD PLATE); “active; positive” (Test System: AMES SALMONELLA TYPHIMURIUM, Strain/Indicator: TA98, Metabolic Activation: RAT, LIVER, MICROSOMES, AROCLOR 1254, Method: STANDARD PLATE); “active; positive” under setting [7].
